{
  "source": "patent US20230190870A1",
  "about": "“Method for Treating Lysosomal Storage Diseases with Histatin Peptides” (THE BOARD OF TRUSTEES OF THE UNIVERSITY OF ILLINOIS, priority 2020, published 2023)",
  "key": {"NPC1 patient fibroblasts": {"system": "NPC1 patient fibroblasts", "assay": "Gene expression in NPC1 patient fibroblasts", "assay_type": "cell-based, human"}, "GST-TMEM97 (108-176)": {"biological_target": "T1, GST-TMEM97 (108-176) (Homo sapiens, UniProt Q5BJF2)", "T1 construct": "GST-TMEM97 (108-176, recombinant GST-C terminal from wheat germ); purchased Abnova (Taipei City, Taiwan); host or cells: wheat germ (cell-free)", "T1 sequence (Q5BJF2 108-176)": "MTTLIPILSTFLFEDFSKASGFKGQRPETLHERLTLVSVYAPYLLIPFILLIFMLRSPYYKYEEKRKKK", "assay": "Surface plasmon resonance, immobilized GST-TMEM97 (108-176)", "assay_type": "binding", "details": "for % Rmax: SPR", "experimental": "Surface Plasmon Resonance (SPR). Recombinant full-length TMEM97 (also called MAC30, from HEK293 cells) and GST-TMEM97 (108-176, recombinant GST-C terminal from wheat germ) proteins were purchased from OriGene (Rockville, Md.) and Abnova (Taipei City, Taiwan), respectively. Three peptides, TMEM97 (108-176), TMEM97 (108-143) and TMEM97 (144-176), were synthesized. All proteins and peptides were initially prepared in HBS buffer containing 10 mM HEPES, pH 7.4, 150 mM NaCl, and 0.05% surfactant P20. The CM5 sensor surface was first activated by 1-ethyl-3-(3-dimethylaminopropyl) carbodiimide hydrochloride (EDC)/N-hydroxy succinimide (NHS) mixture using a Biacore T200 or Biacore 8K instrument (GE Healthcare). […] Flow channels 1 and 3 were used as references.\nThe three synthesized peptides were diluted to 50 μg/mL in 10 mM sodium acetate at pH 4.0 and immobilized to flow channels 2, 3 and 4, respectively, on another sensor chip. The unmodified surfaces on a flow channel 1 were used as a reference control. Histatin solutions with a series of increasing concentrations (0.78-25 μM at 2-fold dilution) were applied to all four channels at a 30 μL/minute flow rate at 25° C. The data were double-referenced with reference channel and zero concentration responses, and reference subtracted sensorgrams were fitted with 1 to 1 Langmuir kinetic model using a Biacore T200 evaluation software V3.0 or Insight evaluation software. The equilibrium dissociation constants ([…]) were determined from two rate constants (KD=kd/ka).\nTo determine the region(s) of Hst1 that mediate binding to TMEM97, SPR testing was performed with various Hst1 fragments and either recombinant TMEM97 (GST-tagged, wheat-germ derived, C-terminal fragment TMEM97 (108-176)) or synthesized TMEM97 (TMEM97 (108-176), TMEM97 (108-143) and TMEM97 (144-176))."}, "[1]": {"assay": "Circular dichroism secondary structure analysis (DichroWeb)", "assay_type": "physicochemical", "experimental": "Circular Dichroism (CD). CD analysis was performed on a Jasco 815 CD spectrometer at room temperature. TMEM97 (108-176) and Hst1 full-length peptides were prepared as 10 mM stock in 25% DMSO and water, respectively, and diluted to 0.15 mg/mL final concentration in 10 mM […] buffer. A total of 400 μL of each sample was added into a 1 mm quartz sample cell, and CD spectra were recorded from 260 nm to 190 nm wavelength. Data points were measure in 0.5 nm wavelength step at a scanning speed of 100 nm/minute. A total of five spectra were acquired for each sample and averaged. […] buffer without peptide was used as a control curve, which was subsequently subtracted from the CD spectra of peptide samples. The resulting buffer control subtracted CD intensity row data in millidegrees were submitted to DichroWeb and fitted with multiple embedded models and converted to mean residue ellipticity.\nSubsequently, the hypothesis that interaction between Hst1 and TMEM97 could affect the structure of each protein was tested. Also, the secondary structure of Hst1 and TMEM97 was tested in solution using CD measurements. It was noted that Hst1 alone is mostly disordered (over 50%) with some degree of β-strand, while TMEM97 (108-176) contains some α-helical and β-strand regions with ˜34% disordered regions. According to CD spectra comparison, there seemed to be more secondary structures formed upon Hst1 binding to TMEM97 (108-176)."}, "TMEM97 (108-176)": {"biological_target": "T2, TMEM97 (108-176) (Homo sapiens, UniProt Q5BJF2)", "T2 construct": "Three peptides, TMEM97 (108-176), TMEM97 (108-143) and TMEM97 (144-176), were synthesized; made in house; host or cells: chemical solid-phase synthesis (Fmoc, Wang resin)", "T2 sequence (Q5BJF2 108-176)": "as above", "assay": "Isothermal titration calorimetry, TMEM97 (108-176)", "assay_type": "binding", "details": "ITC", "experimental": "Isothermal Titration Calorimetry (ITC). The three synthesized peptides, TMEM97 (108-176), TMEM97 (108-143) and TMEM97 (144-176) were prepared in ITC buffer (10 mM Tris, pH 7.4, 150 mM NaCl, 0.05% polysorbate 20) at 40 μM concentration and placed in the sample cell. All ITC experiments were performed while stirring at 395 rpm, in ITC buffer at 25° C. using a VP-ITC titration microcalorimeter from MicroCal™, LLC (Northampton, Mass.). The microsyringe was loaded with a Histatin 1 solution (500 μM in ITC buffer). All titrations were conducted using an initial injection of 2.5 μL followed by 35 identical injections of 5 μL with a duration of 16 seconds (per injection) and a spacing of 210 seconds between injections. The buffer control titration (Histatin 1 into buffer) signals were subtracted from the experimental data. The collected data were evaluated using NITPIC (NIH), SEDPHAT (NIH), and GUSSI (NIH).\nTo determine more precisely which segment of TMEM97 is necessary for binding of Hst1, multiple synthetic fragments of TMEM97 were generated (Table 6) and binding to Hst1 was tested using SPR. […] Smaller fragments of the C-terminal of TMEM97 were then constructed to represent the (predicted) luminal (108-143) and cytoplasmic (144-176) exposed segments of the C-terminus of TMEM97 based on modeling experiments previously described. […]"}, "[2]": {"details": "CD, fraction of secondary structure"}},
  "note": "Square brackets hold non-standard residues; d marks the D form. Peptide text beside a SMILES is read from it. pS = N[C@@H](COP(=O)(O)O)C(=O)O",
  "data": [
    {"smiles": "CC(C)C[C@H](NC(=O)[C@H](Cc1ccc(O)cc1)NC(=O)[C@H](CC(N)=O)NC(=O)[C@H](CO)NC(=O)CNC(=O)[C@H](Cc1ccc(O)cc1)NC(=O)[C@H](CC(=O)O)NC(=O)CNC(=O)[C@H](Cc1ccc(O)cc1)NC(=O)[C@H](Cc1ccccc1)NC(=O)[C@@H]1CCCN1C(=O)[C@H](Cc1ccccc1)NC(=O)[C@H](CCC(=O)O)NC(=O)[C@H](CCCNC(=N)N)NC(=O)[C@H](Cc1c[nH]cn1)NC(=O)[C@H](CO)NC(=O)[C@H](Cc1c[nH]cn1)NC(=O)[C@H](Cc1c[nH]cn1)NC(=O)[C@H](CCCCN)NC(=O)[C@H](CCC(=O)O)NC(=O)[C@H](Cc1c[nH]cn1)NC(=O)[C@H](Cc1ccccc1)NC(=O)[C@H](CCCCN)NC(=O)[C@H](CCCNC(=N)N)NC(=O)[C@H](CCCNC(=N)N)NC(=O)[C@H](Cc1ccc(O)cc1)NC(=O)CNC(=O)[C@H](Cc1c[nH]cn1)NC(=O)[C@H](Cc1c[nH]cn1)NC(=O)[C@H](CCCNC(=N)N)NC(=O)[C@H](CCCCN)NC(=O)[C@H](CCC(=O)O)NC(=O)[C@H](Cc1c[nH]cn1)NC(=O)[C@H](COP(=O)(O)O)NC(=O)[C@@H](N)CC(=O)O)C(=O)N[C@@H](Cc1ccc(O)cc1)C(=O)N[C@@H](CC(=O)O)C(=O)N[C@@H](CC(N)=O)C(=O)O", "note": "[Hst1] (H-D[pS]HEKRHHGYRRKFHEKHHSHREFPFYGDYGSNYLYDN-OH; N-terminus and C-terminus assumed)", "values": [
      {"measurement": "HMG-CoA reductase gene expression", "setting": "NPC1 patient fibroblasts", "value": "reducing HMG-CoA reductase gene expression"},
      {"measurement": "NPC1 gene expression", "setting": "NPC1 patient fibroblasts", "value": "increasing NPC1 gene expression"},
      {"measurement": "% Rmax", "setting": "GST-TMEM97 (108-176)", "value": 43, "unit": "%"},
      {"measurement": "% Rmax", "setting": "GST-TMEM97 (108-176); listed as Hst1(1-38)", "value": "(% Rmax = 23%)"},
      {"measurement": "effect of added DTG or haloperidol on Hst1 binding", "setting": "GST-TMEM97 (108-176); addition of either DTG or haloperidol", "value": "did not affect"},
      {"measurement": "disordered regions", "setting": "[1]; CD in solution", "value": "over 50%"},
      {"measurement": "Helix", "setting": "[1]; [2]", "value": 0.02},
      {"measurement": "Strand", "setting": "[1]; [2]", "value": 0.29},
      {"measurement": "Turns", "setting": "[1]; [2]", "value": 0.15},
      {"measurement": "Unordered", "setting": "[1]; [2]", "value": 0.54},
      {"measurement": "ΔS", "setting": "TMEM97 (108-176)", "value": "11.6±3.4", "unit": "cal/mol K"},
      {"measurement": "Kd", "setting": "TMEM97 (108-176); 25° C.", "value": "890 ± 200", "unit": "nM"}
    ]}
  ]
}
